{"source": "patent US20250019385A1", "about": "“SPIROCYCLIC ANNULATED 2-AMINO-3-CYANO THIOPHENES AND DERIVATIVES FOR THE TREATMENT OF CANCER” (Boehringer Ingelheim International GmbH, priority 2023, published 2025)"}
{"molecular_target": "KRAS (G12C)::SOS1 protein-protein interaction (Homo sapiens (Human), UniProt P01116, C118S/C51S/C80L/G12C)", "sequence (P01116 other isoform, or with tags, fused parts or gaps G12C/C51S/C80L/C118S)": "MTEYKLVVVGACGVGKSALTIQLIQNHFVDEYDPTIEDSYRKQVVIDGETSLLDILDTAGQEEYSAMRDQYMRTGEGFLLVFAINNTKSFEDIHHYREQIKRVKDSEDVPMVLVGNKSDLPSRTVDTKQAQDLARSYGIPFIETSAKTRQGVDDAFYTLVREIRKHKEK", "assay": "KRAS::SOS1 AlphaScreen binding assay (KRAS G12C)", "conditions": "GDP", "from_the_text": "(§1) This assay can be used to examine the potency with which compounds according to the invention binding to (mutated) KRAS inhibit the protein-protein interaction between SOS1 and (mutated) KRAS e.g. KRAS G12C, KRAS G12D. […] Low IC50 values in this assay setting are indicative of strong inhibition of protein-protein interaction between SOS1 and KRAS:\n(§2) These assays measure the inhibitory effect of compounds on KRAS mutant protein-protein interactions using the Alpha Screen technology by Perkin Elmer.\n(§3) The following (mutant) enzyme forms of KRAS and interacting proteins are used in these assays at the given concentrations:\nKRAS (G12C) 1-169, N-terminal 6His-tag for purification, cleaved off, C-terminal avi-tag, biotinylated, mutations: C51S, C80L, C118S (in house); final assay concentration 7.5 nM and SOS1 564-1049, N-terminal 229 GST-tag, TEV cleavage site (Viva Biotech Ltd); final assay concentration 5 nM;\n(§4) Test compounds dissolved in DMSO are dispensed onto assay plates (Proxiplate 384 PLUS, white, PerkinElmer; 6008289) using an Access Labcyte Workstation with the Labcyte Echo 55x. For the chosen highest assay concentration of 100 μM, 150 nL of compound solution are transferred from a 10 mM DMSO compound stock solution. A series of eleven fivefold dilutions per compound are transferred to the assay plate, compound dilutions are tested in duplicates. DMSO are added as backfill to a total volume of 150 nL.\n(§5) The assays run on a fully automated robotic system in a darkened room below 100 Lux. To 150 nl of compound dilution 10 μl of a mix including KRAS mutant protein, SOS1 (final assay concentrations see above) and GDP nucleotide (Sigma G7127; final assay concentration 10 μM) in assay buffer (1×PBS, 0.1% BSA, 0.05% Tween 20) are added into columns 1-24.\n(§6) After 30 minutes incubation time 5 μl of Alpha Screen bead mix in assay buffer are added into columns 1-23. Bead mix consists of AlphaLISA Glutathione Acceptor Beads (PerkinElmer, Cat No AL109) and AlphaScreen Streptavidin Donor Beads (PerkinElmer Cat No 6760002) in assay buffer at a final assay concentration of 10 μg/mL each.\n(§7) Plates are kept at room temperature in a darkened incubator. After an additional 60 minutes incubation time the signal is measured in a PerkinElmer Envision HTS Multilabel Reader using the AlphaScreen specs from PerkinElmer.\n(§8) Each plate contains up to 16 wells of a negative control depending on the dilution procedure (platewise or serial) (DMSO instead of test compound; with KRAS mutant::SOS1 GOP mix and bead mix; column 23) and 16 wells of a positive control (DMSO instead of test compound; with KRAS mutant::SOS1 GOP mix w/o bead mix; column 24).\n(§9) As internal control known inhibitors of KRAS mutant::SOS1 interaction can be measured on each compound plate.\n(§10) IC50 values are calculated and analyzed with Boehringer Ingelheim's MEGALAB C50 application using a 4 parametric logistic model.\n(§11) Tables of example compounds disclosed herein contain IC50 values determined using the above assays (see Table 43).", "units": {"IC50": "nM"}}
{"smiles": "CCn1c(=O)n([C@@H]2CCOC2)c2nc(-c3onc4c3CCC[C@@]43CCCc4sc(N)c(C#N)c43)nc(O[C@@H](C)[C@@H]3CCCN3C)c21", "note": "[I-21]", "IC50": 1}
{"smiles": "C[C@H](Oc1nc(-c2onc3c2CCC[C@@]32CCCc3sc(N)c(C#N)c32)nc2c1n(C)c(=O)n2[C@H]1CCC[C@@H]1O)[C@@H]1CCCN1C", "note": "[I-19]", "IC50": 2}
{"smiles": "C[C@H](Oc1nc(-c2onc3c2CCC[C@@]32CCCc3sc(N)c(C#N)c32)nc2c1n(C)c(=O)n2C1CCOCC1)[C@@H]1CCCN1C", "note": "[I-10]", "IC50": 2}
{"smiles": "C[C@H](Oc1nc(-c2noc3c2CCC[C@@]32CCCc3sc(N)c(C#N)c32)nc2c1COC[C@@]21CCOC1)[C@@H]1CCCN1C", "note": "[II-9a]", "IC50": 2}
{"smiles": "COCCn1c(=O)n(C)c2c(O[C@@H](C)[C@@H]3CCCN3C)nc(-c3onc4c3CCC[C@@]43CCCc4sc(N)c(C#N)c43)nc21", "note": "[I-7]", "IC50": 3}
{"molecular_target": "KRAS (G12D)::SOS1 protein-protein interaction (Homo sapiens (Human), UniProt P01116, G12D)", "sequence (P01116 other isoform, or with tags, fused parts or gaps G12D)": "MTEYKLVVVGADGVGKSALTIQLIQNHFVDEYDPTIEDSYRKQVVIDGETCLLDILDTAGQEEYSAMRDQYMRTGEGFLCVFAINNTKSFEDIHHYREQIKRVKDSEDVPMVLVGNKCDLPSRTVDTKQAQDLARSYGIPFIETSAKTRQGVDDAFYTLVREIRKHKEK", "assay": "KRAS::SOS1 AlphaScreen binding assay (KRAS G12D)", "conditions": "GDP", "from_the_text": "as §1, §2, §3\nKRAS (G12D) 1-169, N-terminal 6His-tag, C-terminal avi-tag (Xtal BioStructures, Inc.); final assay concentration 10 nM and SOS1 564-1049, N-terminal 229 GST-tag, TEV cleavage site (Viva Biotech Ltd); final assay concentration 5 nM;\nas §4, §5, §6, §7, §8, §9, §10, §11", "units": {"IC50": "nM"}}
{"smiles": "CCn1c(=O)n([C@@H]2CCOC2)c2nc(-c3onc4c3CCC[C@@]43CCCc4sc(N)c(C#N)c43)nc(O[C@@H](C)[C@@H]3CCCN3C)c21", "note": "[I-21]", "IC50": 1}
{"smiles": "C[C@H](Oc1nc(-c2onc3c2CCC[C@@]32CCCc3sc(N)c(C#N)c32)nc2c1n(C)c(=O)n2[C@H]1CCC[C@@H]1O)[C@@H]1CCCN1C", "note": "[I-19]", "IC50": 3}
{"smiles": "C[C@H](Oc1nc(-c2onc3c2CCC[C@@]32CCCc3sc(N)c(C#N)c32)nc2c1n(C)c(=O)n2C1CCOCC1)[C@@H]1CCCN1C", "note": "[I-10]", "IC50": 5}
{"smiles": "C[C@H](Oc1nc(-c2noc3c2CCC[C@@]32CCCc3sc(N)c(C#N)c32)nc2c1COC[C@@]21CCOC1)[C@@H]1CCCN1C", "note": "[II-9a]", "IC50": 2}
{"smiles": "COCCn1c(=O)n(C)c2c(O[C@@H](C)[C@@H]3CCCN3C)nc(-c3onc4c3CCC[C@@]43CCCc4sc(N)c(C#N)c43)nc21", "note": "[I-7]", "IC50": 5}
{"system": "MKN1 cells", "assay": "MKN1 CTG proliferation assay (120 h) (gastric cancer, wt amplified)", "assay_type": "cell-based", "conditions": "Homo sapiens, MKN-1", "protocol": "MKN1 cells (JCRB0252) are dispensed into black 384-well plates, flat and clear bottom (Greiner, PNr. 781091) at a density of 200 cells per well in 60 μl RPMI-1640 ATCC-Formulation (Gibco #A10491)+10% FCS (fetal calf serum, HyClone, SH30084.03). Cells are incubated overnight at 37° C. in a humidified tissue culture incubator at 5% CO2. Compounds (10 mM stock in DMSO) are added at logarithmic dose series using the ECHO acoustic liquid handler system (Beckman Coulter), normalizing for added DMSO and including DMSO controls. All compound treatments are performed in technical duplicates. For the TO time point measurement, untreated cells are analyzed at the time of compound addition. Plates are incubated for 120 h, and cell viability is measured using CellTiter-Glo luminescent cell viability reagent (Promega product code G7570). Viability (stated as percent of control) is defined as relative luminescence units RLU of each well divided by the RLU of cells in DMSO controls. IC50 values are determined from viability measurements by non-linear regression using a four-parameter model.\nIC50 values of representative compounds according to the invention measured with these assays in the indicated cell lines are presented in Table 46.", "units": {"IC50": "nM"}}
{"smiles": "CCn1c(=O)n([C@@H]2CCOC2)c2nc(-c3onc4c3CCC[C@@]43CCCc4sc(N)c(C#N)c43)nc(O[C@@H](C)[C@@H]3CCCN3C)c21", "note": "[I-21]", "IC50": 22}
{"smiles": "C[C@H](Oc1nc(-c2onc3c2CCC[C@@]32CCCc3sc(N)c(C#N)c32)nc2c1n(C)c(=O)n2[C@H]1CCC[C@@H]1O)[C@@H]1CCCN1C", "note": "[I-19]", "IC50": 1040}
{"smiles": "C[C@H](Oc1nc(-c2onc3c2CCC[C@@]32CCCc3sc(N)c(C#N)c32)nc2c1n(C)c(=O)n2C1CCOCC1)[C@@H]1CCCN1C", "note": "[I-10]", "IC50": 109}
{"smiles": "C[C@H](Oc1nc(-c2noc3c2CCC[C@@]32CCCc3sc(N)c(C#N)c32)nc2c1COC[C@@]21CCOC1)[C@@H]1CCCN1C", "note": "[II-9a]", "IC50": 209}
{"smiles": "COCCn1c(=O)n(C)c2c(O[C@@H](C)[C@@H]3CCCN3C)nc(-c3onc4c3CCC[C@@]43CCCc4sc(N)c(C#N)c43)nc21", "note": "[I-7]", "IC50": 373}
{"system": "not listed separately", "assay": "Solubility measurement (DMSO solution precipitation method)", "assay_type": "physicochemical", "conditions": "aqueous buffer, kinetic from dmso stock, McIlvaine buffer pH 4.5, 24 h, read-out: solubility pH 4.5", "protocol": "(§12) A 10 mM DMSO stock solution of a test compound is used to determine its aq. solubility. The DMSO solution is diluted with an aq. medium (McIlvaine buffer with pH=4.5 or 6.8) to a final concentration of 250 μM. After 24 h of shaking at ambient temperature a potentially formed precipitate is removed by filtration. The concentration of the test compound in the filtrate is determined by LC-UV methods by calibrating the signal to the signal of a reference solution with complete dissolution of the test compound in acetonitrile/water (1:1) with known concentration.", "units": {"solubility at 24 h": "µg/mL"}}
{"smiles": "CCn1c(=O)n([C@@H]2CCOC2)c2nc(-c3onc4c3CCC[C@@]43CCCc4sc(N)c(C#N)c43)nc(O[C@@H](C)[C@@H]3CCCN3C)c21", "note": "[I-21]", "solubility at 24 h": "> 157"}
{"smiles": "C[C@H](Oc1nc(-c2onc3c2CCC[C@@]32CCCc3sc(N)c(C#N)c32)nc2c1n(C)c(=O)n2[C@H]1CCC[C@@H]1O)[C@@H]1CCCN1C", "note": "[I-19]", "solubility at 24 h": "> 152"}
{"smiles": "C[C@H](Oc1nc(-c2onc3c2CCC[C@@]32CCCc3sc(N)c(C#N)c32)nc2c1n(C)c(=O)n2C1CCOCC1)[C@@H]1CCCN1C", "note": "[I-10]", "solubility at 24 h": "> 151"}
{"smiles": "C[C@H](Oc1nc(-c2noc3c2CCC[C@@]32CCCc3sc(N)c(C#N)c32)nc2c1COC[C@@]21CCOC1)[C@@H]1CCCN1C", "note": "[II-9a]", "solubility at 24 h": "> 141"}
{"smiles": "COCCn1c(=O)n(C)c2c(O[C@@H](C)[C@@H]3CCCN3C)nc(-c3onc4c3CCC[C@@]43CCCc4sc(N)c(C#N)c43)nc21", "note": "[I-7]", "solubility at 24 h": "> 150"}
{"system": "not listed separately", "assay": "Solubility measurement (DMSO solution precipitation method)", "assay_type": "physicochemical", "conditions": "aqueous buffer, kinetic from dmso stock, McIlvaine buffer pH 6.8, 24 h, read-out: solubility pH 6.8", "protocol": "as §12", "units": {"solubility at 24 h": "µg/mL"}}
{"smiles": "CCn1c(=O)n([C@@H]2CCOC2)c2nc(-c3onc4c3CCC[C@@]43CCCc4sc(N)c(C#N)c43)nc(O[C@@H](C)[C@@H]3CCCN3C)c21", "note": "[I-21]", "solubility at 24 h": "> 144"}
{"smiles": "C[C@H](Oc1nc(-c2onc3c2CCC[C@@]32CCCc3sc(N)c(C#N)c32)nc2c1n(C)c(=O)n2[C@H]1CCC[C@@H]1O)[C@@H]1CCCN1C", "note": "[I-19]", "solubility at 24 h": "> 146"}
{"smiles": "C[C@H](Oc1nc(-c2onc3c2CCC[C@@]32CCCc3sc(N)c(C#N)c32)nc2c1n(C)c(=O)n2C1CCOCC1)[C@@H]1CCCN1C", "note": "[I-10]", "solubility at 24 h": "> 148"}
{"smiles": "C[C@H](Oc1nc(-c2noc3c2CCC[C@@]32CCCc3sc(N)c(C#N)c32)nc2c1COC[C@@]21CCOC1)[C@@H]1CCCN1C", "note": "[II-9a]", "solubility at 24 h": "> 138"}
{"smiles": "COCCn1c(=O)n(C)c2c(O[C@@H](C)[C@@H]3CCCN3C)nc(-c3onc4c3CCC[C@@]43CCCc4sc(N)c(C#N)c43)nc21", "note": "[I-7]", "solubility at 24 h": "> 147"}
